Results from patent US5843916A, “Cyclic amp analogues, individually and in pairs, to inhibit neoplastic cell growth” (priority 1994, dated 1998).
“Also recorded” adds a separate entry of the source. Where two headings read alike, the source gives them in different places.

Experiments:
[1] = test system: breast (MCF-7) and colon (LS-174T) cancer cell lines; assay: Growth inhibition of breast and colon cancer cells (Table 1); assay type: cell-based, human; conditions: for inhibition at 50 µM: Homo sapiens
Summary of the method: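 MCF-7 and LS-174T cells seeded day −1, treated on day 0 and day 2; duplicate Coulter counts on days 3 and 4 after gentle trypsinization. Percent growth inhibition versus untreated controls from dose-response curves, averaged over ≥3 experiments.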

[2] = test system: breast and colon cancer lines (MCF-7, T-47D, ZR-75-1, MCF-7ras, MDA-MB-231, BT-20, HBL-100, LS-174T, WiDr, HT-29); assay: Growth inhibition of breast and colon cancer lines (FIG. 1); assay type: cell-based, human
[3] = test system: DMBA-induced mammary carcinomas; assay: Growth of DMBA-induced mammary carcinomas, pellet (Table 4); assay type: in vivo, rat; conditions: for tumor growth: 10 mg pellet for 8-Cl-cAMP, implanted twice every two weeks
Experimental: Treated tumors regress almost 100% within 30 days.
^b 8Cl-cAMP (20 mg pellet per rat, consisting of 10 mg 8Cl-cAMP and […]
mg cholesterol), was implanted on day 0 and day 14.

DMBA-1 mammary carcinoma = assay: Growth of transplantable mammary carcinoma, pellet (Table 5); assay type: in vivo, rat; conditions: for Change in mean tumor volume (cm^3) / Change in mean tumor volume (%): pellet with 10 mg analogue, day 7; for Change in mean tumor volume (%): none = 100
Experimental: Based on the findings with the […] leukemia model, the efficacy of the 8-Cl-cAMP-Na+infusions were evaluated in advanced-stage human tumor xenograft models. Tumor fragments of approximately 14 mg were implanted subcutaneously in athymic CD-1 female mice and seven day intraperitoneal infusions of the cyclic nucleotide were initiated three weeks later when mean tumor weights had reached 300-400 mg. Tumor measurements were recorded on the initial day of treatment (staging day) and one day after treatment was completed (staging day +7), and were used to calculate changes in tumor weights.
DMBA-1, a variant of primary hormonedependent DMBA tumor,
hormoneindependent and transplantable.
8Cl-cAMP and DBcAMP were given as a 20mg pellet consisting of 10 mg of […]

myc-K562 = assay: Growth inhibition of leukemic cells (Table 12); assay type: cell-based; conditions: Homo sapiens
[4] = target: T1, Protein kinase type II (cAKII) (Bos taurus, UniProt P00515); assay: Protein kinase activation (Table 15); assay type: biochemical, bovine (heart); conditions: half-maximum activation; U. M.: unmeasurable
T1 construct: prepared from rabbit skeletal muscle and bovine heart; from tissue; host or cells: bovine heart
Experimental: ATP to Kemptide as described by Ogreid et al., Eur. J. Biochem. 150: 219-227 (1985).
Protein kinases types I (cAKI) and II (cAKII) were
prepared from rabbit skeletal muscle and bovine heart,
respectively, as described in D.o slashed.skeland et al. (J. Biol.
of the protein kinase in Ogreid et al. (Eur. J. Biochem.

[5] = test system: HL-60 human leukemia cells; assay: Growth inhibition of HL-60 leukemia cells (Example 3, Table 16); assay type: cell-based; conditions: for IC50: Homo sapiens
Summary of the method: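 HL-60 cells were grown in suspension in RPMI 1640 with 10% heat-inactivated FBS, starting at 1 × 10^5 cells/dish. Cells were counted on a Coulter Counter after 3 or 6 days of exposure. IC50 values were read from dose-response data and averaged over two or more separate experiments.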

[6] = test system: LS-174T human colon carcinoma cells; assay: Additive growth inhibition with 8-Cl-cAMP (Table 19); assay type: cell-based; conditions: Homo sapiens, LS174T, 96 h; 1 μM; 4 days
Experimental: The medium was changed every 48 hours.
At desired times, cell counts were performed in duplicate on a Coulter Counter after harvesting cells with gentle trypsinization.
The analogues were added at 24

[7] = test system: RI and RII cAMP receptor proteins, breast (MDA-MB-231) and colon (LS-174T) cancer cells; assay: cAMP receptor protein levels, breast and colon cancer cells (FIG. 6); assay type: cell-based, human; conditions: for RI and RII receptor levels: three days, FIG. 6
Experimental: Photoactivated incorporation of 8-N3 [^32 P] was performed as described below.
M is marker proteins of known molecular weight.
The incubations were carried out at 23° C. for 60 minutes in 96-well immunoplates. […] The gels were fixed, dried, and exposed to X-ray films overnight.

[8] = test system: four leukemic cell lines (HL-60, K-562, myc-K562, Molt-4); assay: Growth inhibition of leukemic cell lines; assay type: cell-based, human; conditions: Homo sapiens; leukemic cell lines, range
[9] = target: T2, RI, regulatory subunit of cAMP-dependent protein kinase type I (Oryctolagus cuniculus, UniProt G1TDN4); conditions: cited from earlier work
T2 construct: from tissue

L1210 leukemia = assay: Life span of L1210-inoculated BDF1 mice (Table 7)
[10] = test system: cultured human fibroblasts; conditions: cited from earlier work
neuroblastoma cells = conditions: two contradicting studies; cited from earlier work
[11] = test system: spindle cell sarcoma with multiple metastasis; conditions: cited from earlier work
[12] = test system: mammary carcinomas induced by DMBA; conditions: treatment of hosts; cited from earlier work
[13] = 72 h, 50 μM, day 3, average (range), read-out: % Growth Inhibition, Day 3
[14] = 96 h, 50 μM, day 4, average (range), read-out: % Growth Inhibition, Day 4

T2 sequence (G1TDN4 1-381): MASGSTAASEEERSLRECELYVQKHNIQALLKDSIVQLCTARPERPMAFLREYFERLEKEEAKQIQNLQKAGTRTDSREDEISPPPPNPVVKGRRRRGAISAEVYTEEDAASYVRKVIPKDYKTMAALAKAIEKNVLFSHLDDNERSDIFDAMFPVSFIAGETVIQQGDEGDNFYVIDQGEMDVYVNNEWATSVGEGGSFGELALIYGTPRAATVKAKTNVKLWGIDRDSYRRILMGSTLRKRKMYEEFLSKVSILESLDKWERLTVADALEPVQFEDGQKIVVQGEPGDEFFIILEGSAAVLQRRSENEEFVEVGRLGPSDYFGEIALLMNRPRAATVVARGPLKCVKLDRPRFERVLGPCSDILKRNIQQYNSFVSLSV
T1 sequence (P00515 2-401 limits assumed): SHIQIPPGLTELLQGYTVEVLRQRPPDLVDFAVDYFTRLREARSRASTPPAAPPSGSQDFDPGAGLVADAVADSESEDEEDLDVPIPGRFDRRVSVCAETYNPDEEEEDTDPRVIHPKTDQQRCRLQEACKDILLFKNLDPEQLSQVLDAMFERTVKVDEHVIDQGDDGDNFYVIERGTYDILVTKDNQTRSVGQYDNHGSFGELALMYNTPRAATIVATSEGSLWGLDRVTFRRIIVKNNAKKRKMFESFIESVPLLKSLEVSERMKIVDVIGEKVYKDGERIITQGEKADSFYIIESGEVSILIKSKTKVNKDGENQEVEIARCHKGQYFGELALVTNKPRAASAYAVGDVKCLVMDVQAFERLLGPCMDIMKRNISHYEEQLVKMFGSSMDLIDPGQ

In the case of `Nc1ncnc2c1nc(Cl)n2[C@@H]1O[C@@H]2COP(=O)(O)O[C@H]2[C@H]1O` [8-Cl-cAMP, 8-chloro-adenosine 3': 5'-monophosphate], the inhibition at 50 µM [1, 13] is reported as 67%, the inhibition at 50 µM [1, 14] is reported as 75% and the inhibition at 50 µM ([1]; 50 micromolar, read-out: growth inhibition) is reported as 40 to 75%. The “growth inhibition of cancer lines” value ([2]; densitometry text) was 45-70%, the “tumor growth” value [3] was “completely stopped tumor growth” and the tumor regression ([3]; 10 mg pellet, within 30 days) was ~100%. The “Mean % of change in tumor volume” value ([3]; pellet day 0 and day 14, day 30, mean ± S.E.) was -96 ± 20%, the “Change in mean tumor volume (cm^3)” value (DMBA-1 mammary carcinoma) was 1.60 cm^3 and the “Change in mean tumor volume (%)” value (DMBA-1 mammary carcinoma) was 61%. For the same molecule, the “inhibition of tumor growth” value (DMBA-1 mammary carcinoma; pellet, seven days) was 40-50%, the IC50 (myc-K562) was 20 µM and the “Activation Constant (Ka), cAKII” value [4] was 1.0 × 10^-7. The “growth inhibitory potency” value ([5]; HL-60) was “potent growth inhibitor of HL-60 cells”, the IC50 ([5]; HL-60, 72 h, read-out: Growth inhibition (IC50), Day 3) was 5 µM and the IC50 ([5]; HL-60, 144 h, read-out: Growth inhibition (IC50), Day 6) was 0.4 µM. For the same molecule, the inhibition at 1 µM [6] was 30%, the “decrease in the RI level” value ([7]; densitometric tracings) was 70-80% and the “increase in the ratio of RII to RI” value ([7]; densitometric tracings) was “two- to three-fold increase”. The “RI and RII receptor levels” value [7] was “the cAMP receptor protein with a molecular weight of 52,000 increased appreciably with concomitant decrease of the 48,000 RI receptor protein”, the IC50 [8] was 5 to 20 µM and the “relative affinity Ki (cAMP)/Ki (analogue), RI Site A” value ([9]; Site A (Site 2), literature) was 2.71. The “relative affinity Ki (cAMP)/Ki (analogue), RI Site B” value ([9]; Site B (Site 1), literature) was 2.0, the “site selectivity of binding to RI” value [9] was “binds to site 2 of the RI receptor” and the “antitumor effect” value (L1210 leukemia; 104 mg/kg bolus, seven consecutive days) was “no antitumor effect”. The “increase in mean life span” value (L1210 leukemia; constant infusion 104 mg/kg/day, five days) was 37%.
In the case of `CCCC(=O)Nc1ncnc2c1ncn2[C@@H]1O[C@@H]2COP(=O)(O)O[C@H]2[C@H]1OC(=O)CCC` [DBcAMP, N^6, O^2' -dibutyryl-cAMP, reference compound], the “growth inhibition” value ([1]; 50 micromolar) is reported as “no growth inhibition”, the inhibition at 50 µM [1, 13] is reported as 0% and the inhibition at 50 µM [1, 14] is reported as 0%. For the same molecule, the inhibition at 1000 µM ([2]; Homo sapiens, 1 mM) was 15%, the “tumor growth” value [3] was “only arrests this tumor growth without producing regression” and the “tumor response” value (DMBA-1 mammary carcinoma; Table 5) was “completely resistant”. The “Change in mean tumor volume (cm^3)” value (DMBA-1 mammary carcinoma) was 2.60 cm^3, the “Change in mean tumor volume (%)” value (DMBA-1 mammary carcinoma) was 9% and the IC50 (myc-K562) was 1000 µM. The “RI and RII receptor levels” value [7] was “the RI and RII receptor levels remained unchanged; also recorded: did not appreciably affect the RI or RII receptor levels”, the IC50 [8] was 500 to 1000 µM and the “DNA synthesis” value ([10]; added during first eight hours after serum addition) was “not delayed”. For the same molecule, the “DNA synthesis” value ([10]; added more than eight hours after serum addition) was “inhibitory”, the “tumorigenicity” value (neuroblastoma cells) was “decreased; also recorded: unaltered” and the “tumor size” value ([11]; 3-6 mg/kg iv, five hours daily, days 1-9 and 47-56) was “The tumor size plateaued and even decreased during both infusion periods”. The “tumor histology” value ([11]; biopsied on days 2, 14, and 60) was “evidence of differentiation” and the “tumor biochemistry during growth arrest” value [12] was “estrogen binding decreases whereas cAMP binding and cAMP-dependent protein kinase activity increase; also recorded: sharp reduction of the translated p21 protein”.
